# Measurements reported in patent US8163728B2, “Pyrazoles” (Hoffmann-La Roche Inc., priority 2009, dated 2012).
# Biological target: T1, GABA A α5 (Homo sapiens, UniProt P18507+P31644)
# T1 construct: expressed in transfected cells; host or cells: HEK293 cells, transiently transfected; membranes prepared from cell pellets
# Experiment: [3H]flumazenil competition binding, human GABA A α5β3γ2 receptors in HEK293 cell membranes
# Settings: human receptor α5β3γ2 transiently transfected in HEK293; 0.5 nM [3H]flumazenil; 1 hour at 4° C.; means of two determinations; read-out: hKi GABA A α5
# Method in brief: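 Competition with [3H]flumazenil for binding to membranes of HEK293 cells transiently expressing human α5β3γ2, in Krebs-tris buffer pH 7.5. Incubated to equilibrium 1 h at 4 °C, filtered and scintillation-counted; Ki values are means of two determinations.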
row,Ki,SMILES
1,1 nM,"Cn1nc(OCc2c(-c3ccc(F)cc3)noc2CO)cc1C(=O)NC1CCOCC1 [Example 91, 5-[3-(4-Fluoro-phenyl)-5-hydroxymethyl-isoxazol-4-ylmethoxy]-2-methyl-2H-pyrazole-3-carboxylic acid (tetrahydro-pyran-4-yl)-amide]"
2,9.5 nM,"CC(C)NC(=O)c1cc(OCc2c(-c3ccc(F)cc3)noc2CO)nn1C [Example 92, 5-[3-(4-Fluoro-phenyl)-5-hydroxymethyl-isoxazol-4-ylmethoxy]-2-methyl-2H-pyrazole-3-carboxylic acid isopropylamide]"
3,14.7 nM,"Cn1nc(OCc2c(-c3ccc(F)cc3)noc2CO)cc1C(N)=O [Example 93, 5-[3-(4-Fluoro-phenyl)-5-hydroxymethyl-isoxazol-4-ylmethoxy]-2-methyl-2H-pyrazole-3-carboxylic acid amide]"
4,8 nM,"Cn1nc(OCc2c(-c3ccc(F)cc3)noc2CO)cc1C(=O)NCC(F)(F)C(F)(F)F [Example 95, 5-[3-(4-Fluoro-phenyl)-5-hydroxymethyl-isoxazol-4-ylmethoxy]-2-methyl-2H-pyrazole-3-carboxylic acid (2,2,3,3,3-pentafluoro-propyl)-amide]"
5,42.7 nM,"Cn1ccc(NC(=O)c2cc(OCc3c(-c4ccc(F)cc4)noc3CO)nn2C)n1 [Example 96, 5-[3-(4-Fluoro-phenyl)-5-hydroxymethyl-isoxazol-4-ylmethoxy]-2-methyl-2H-pyrazole-3-carboxylic acid (1-methyl-1H-pyrazol-3-yl)-amide]"
6,24 nM,"Cn1nc(OCc2c(-c3ccc(F)cc3)noc2CO)cc1C(=O)N1CC2(COC2)C1 [Example 99, {5-[3-(4-Fluoro-phenyl)-5-hydroxymethyl-isoxazol-4-ylmethoxy]-2-methyl-2H-pyrazol-3-yl}-(2-oxa-6-aza-spiro[3.3]hept-6-yl)-methanone]"
7,5.8 nM,"CC(C)NC(=O)c1cc(OCc2c(-c3ccc(Cl)cc3)noc2CO)nn1C [Example 100, 5-[3-(4-Chloro-phenyl)-5-hydroxymethyl-isoxazol-4-ylmethoxy]-2-methyl-2H-pyrazole-3-carboxylic acid isopropylamide]"
8,0.9 nM,"Cn1nc(OCc2c(-c3ccc(Cl)cc3)noc2CO)cc1C(=O)NC1CCOCC1 [Example 101, 5-[3-(4-Chloro-phenyl)-5-hydroxymethyl-isoxazol-4-ylmethoxy]-2-methyl-2H-pyrazole-3-carboxylic acid (tetrahydro-pyran-4-yl)-amide]"
9,12.6 nM,"Cn1nc(OCc2c(-c3ccc(Cl)cc3)noc2CO)cc1C(N)=O [Example 102, 5-[3-(4-Chloro-phenyl)-5-hydroxymethyl-isoxazol-4-ylmethoxy]-2-methyl-2H-pyrazole-3-carboxylic acid amide]"
10,5.7 nM,"Cn1nc(OCc2c(-c3ccc(Cl)cc3)noc2CO)cc1C(=O)NCC(F)(F)F [Example 103, 5-[3-(4-Chloro-phenyl)-5-hydroxymethyl-isoxazol-4-ylmethoxy]-2-methyl-2H-pyrazole-3-carboxylic acid (2,2,2-trifluoro-ethyl)-amide]"
11,6.6 nM,"Cn1nc(OCc2c(-c3ccc(Cl)cc3)noc2CO)cc1C(=O)NCC(F)(F)C(F)(F)F [Example 104, 5-[3-(4-Chloro-phenyl)-5-hydroxymethyl-isoxazol-4-ylmethoxy]-2-methyl-2H-pyrazole-3-carboxylic acid (2,2,3,3,3-pentafluoro-propyl)-amide]"
12,5.4 nM,"Cn1nc(OCc2c(-c3ccc(Cl)cc3)noc2CO)cc1C(=O)NC1CC1 [Example 105, 5-[3-(4-Chloro-phenyl)-5-hydroxymethyl-isoxazol-4-ylmethoxy]-2-methyl-2H-pyrazole-3-carboxylic acid cyclopropylamide]"
13,17.8 nM,"Cn1nc(OCc2c(-c3ccc(Cl)cc3)noc2CO)cc1C(=O)NC(C)(C)CO [Example 107, 5-[3-(4-Chloro-phenyl)-5-hydroxymethyl-isoxazol-4-ylmethoxy]-2-methyl-2H-pyrazole-3-carboxylic acid (2-hydroxy-1,1-dimethyl-ethyl)-amide]"
14,3.1 nM,"Cn1nc(OCc2c(-c3ccc(Cl)cc3)noc2CO)cc1C(=O)NC1(C)COC1 [Example 108, 5-[3-(4-Chloro-phenyl)-5-hydroxymethyl-isoxazol-4-ylmethoxy]-2-methyl-2H-pyrazole-3-carboxylic acid (3-methyl-oxetan-3-yl)-amide]"
15,9 nM,"Cn1nc(OCc2c(-c3ccc(Cl)cc3)noc2CO)cc1C(=O)N1CC2(COC2)C1 [Example 109, {5-[3-(4-Chloro-phenyl)-5-hydroxymethyl-isoxazol-4-ylmethoxy]-2-methyl-2H-pyrazol-3-yl}-(2-oxa-6-aza-spiro[3.3]hept-6-yl)-methanone]"
16,52.5 nM,"Cn1nc(OCc2c(-c3ccc(Cl)cc3)noc2CO)cc1C(=O)N1CCC(F)(F)CC1 [Example 111, {5-[3-(4-Chloro-phenyl)-5-hydroxymethyl-isoxazol-4-ylmethoxy]-2-methyl-2H-pyrazol-3-yl}-(4,4-difluoro-piperidin-1-yl)-methanone]"

row,Ki,SMILES
1,45.1 nM,"CCCCc1noc(CO)c1COc1cc(C(=O)NCC(F)(F)F)n(C)n1 [Example 112, 5-(3-Butyl-5-hydroxymethyl-isoxazol-4-ylmethoxy)-2-methyl-2H-pyrazole-3-carboxylic acid (2,2,2-trifluoro-ethyl)-amide]"
2,39.6 nM,"CCCCc1noc(CO)c1COc1cc(C(=O)NC2CCC2)n(C)n1 [Example 113, 5-(3-Butyl-5-hydroxymethyl-isoxazol-4-ylmethoxy)-2-methyl-2H-pyrazole-3-carboxylic acid cyclobutylamide]"
3,20.5 nM,"Cc1onc(-c2ccccn2)c1COc1cc(C(=O)NC(C)C)nn1C [Example 115, 1-Methyl-5-(5-methyl-3-pyridin-2-yl-isoxazol-4-ylmethoxy)-1H-pyrazole-3-carboxylic acid isopropylamide]"
4,18.2 nM,"Cc1onc(-c2ccccn2)c1COc1cc(C(=O)NC2CCOCC2)nn1C [Example 116, 1-Methyl-5-(5-methyl-3-pyridin-2-yl-isoxazol-4-ylmethoxy)-1H-pyrazole-3-carboxylic acid (tetrahydro-pyran-4-yl)-amide]"
5,6.8 nM,"Cc1onc(-c2ccc(F)cn2)c1COc1cc(C(=O)N[C@@H](C)CO)nn1C [Example 117, 5-[3-(5-Fluoro-pyridin-2-yl)-5-methyl-isoxazol-4-ylmethoxy]-1-methyl-1H-pyrazole-3-carboxylic acid ((S)-2-hydroxy-1-methyl-ethyl)-amide]"
6,5.1 nM,"Cc1onc(-c2ccccc2)c1/C=C/c1cc(C(=O)NC(C)C)[nH]n1 [Example 118, 5-[(E)-2-(5-Methyl-3-phenyl-isoxazol-4-yl)-vinyl]-2H-pyrazole-3-carboxylic acid iso-propylamide]"
7,20.2 nM,"Cc1onc(-c2ccccc2)c1/C=C\c1cc(C(=O)NC(C)C)[nH]n1 [Example 119, 5-[(Z)-2-(5-Methyl-3-phenyl-isoxazol-4-yl)-vinyl]-2H-pyrazole-3-carboxylic acid iso-propylamide]"
8,28 nM,"Cc1onc(-c2ccc(F)cc2)c1/C=C\c1cc(C(=O)NC(C)C)n(C)n1 [Example 120, 5-{(Z)-2-[3-(4-Fluoro-phenyl)-5-methyl-isoxazol-4-yl]-vinyl}-2-methyl-2H-pyrazole-3-carboxylic acid isopropylamide]"
9,49.6 nM,"Cc1onc(-c2ccc(F)cc2)c1/C=C\c1cc(C(=O)NC(C)CO)n(C)n1 (centres unmarked) [Example 121, 5-{(Z)-2-[3-(4-Fluoro-phenyl)-5-methyl-isoxazol-4-yl]vinyl}-2-methyl-2H-pyrazole-3-carboxylic acid (2-hydroxy-1-methyl-ethyl)-amide]"
10,1.6 nM,"Cc1onc(-c2ccc(F)cc2)c1/C=C/c1cc(C(=O)NC(C)C)n(C)n1 [Example 122, 5-{(E)-2-[3-(4-Fluoro-phenyl)-5-methyl-isoxazol-4-yl]vinyl}-2-methyl-2H-pyrazole-3-carboxylic acid isopropylamide]"
11,1.3 nM,"CCNC(=O)c1cc(/C=C/c2c(-c3ccc(F)cc3)noc2C)nn1C [Example 123, 5-{(E)-2-[3-(4-Fluoro-phenyl)-5-methyl-isoxazol-4-yl]vinyl}-2-methyl-2H-pyrazole-3-carboxylic acid ethylamide]"
12,2 nM,"Cc1onc(-c2ccc(F)cc2)c1/C=C/c1cc(C(=O)NCC(C)(C)O)n(C)n1 [Example 124, 5-{(E)-2-[3-(4-Fluoro-phenyl)-5-methyl-isoxazol-4-yl]vinyl}-2-methyl-2H-pyrazole-3-carboxylic acid (2-hydroxy-2-methyl-propyl)-amide]"
13,0.4 nM,"Cc1onc(-c2ccc(F)cc2)c1/C=C/c1cc(C(=O)NC2CCOCC2)n(C)n1 [Example 125, 5-{(E)-2-[3-(4-Fluoro-phenyl)-5-methyl-isoxazol-4-yl]vinyl}-2-methyl-2H-pyrazole-3-carboxylic acid (tetrahydro-pyran-4-yl)-amide]"
14,1.5 nM,"Cc1onc(-c2ccc(F)cc2)c1/C=C/c1cc(C(N)=O)n(C)n1 [Example 126, 5-{(E)-2-[3-(4-Fluoro-phenyl)-5-methyl-isoxazol-4-yl]vinyl}-2-methyl-2H-pyrazole-3-carboxylic acid amide]"
15,29.3 nM,"Cc1onc(-c2ccc(F)cc2)c1/C=C/c1cc(C(=O)N2CCS(=O)(=O)CC2)n(C)n1 [Example 127, (1,1-Dioxo-1,6-thiomorpholin-4-yl)-(5-{(E)-2-[3-(4-fluoro-phenyl)-5-methyl-isoxazol-4-yl]-vinyl}-2-methyl-2H-pyrazol-3-yl)-methanone]"
16,1.2 nM,"Cc1onc(-c2ccc(F)cc2)c1/C=C/c1cc(C(=O)NCC(F)(F)F)n(C)n1 [Example 128, 5-{(E)-2-[3-(4-Fluoro-phenyl)-5-methyl-isoxazol-4-yl]vinyl}-2-methyl-2H-pyrazole-3-carboxylic acid (2,2,2-trifluoro-ethyl)-amide]"
